Measurements published in US11149248B2, “Bioreactor system” (KIYATEC INC., priority 2013, dated 2021).

Key:
[1] = test system: Human mammary epithelial cells (hMEC); experiment: PrestoBlue cell viability analysis in 2D, 3D static and 3D perfusion culture; format: cell-based; conditions: hMEC cultured over 7 days with increasing concentrations of cisplatin, 3D static, 3D perfusion (FIG. 16)
Description: (§1) The experiment was performed in a single chamber culture system (one chamber of a 3DKUBE in an “independent chamber” configuration) or using wells in a 12-well plate. […] The inlet port was connected to an opening in a first side of the 3DKUBE cell module and the outlet port connected to an opening in a second side of the cell module. The chamber featured an imaging widow enabling non-lytic analysis inside the chamber through various spectrophotometric and other techniques.
(§2) Human mammary epithelial cells (hMEC) were utilized. For 2D experiments hMEC were cultured on the bottom of 12-well plates as per typical cell culture practices (referred to as “2D” experiments). For 3D static and perfusion experiments hMEC were suspended in a Matrigel™:Collagen (rat tail collagen Type I) mixture which was added to silk fibroin scaffolds (H 2.5 mm×W 5 mm) contained in 12-well plates (referred to as “3D static”) or 3DKUBEs (referred to as “3D perfusion”). […]
(§3) The secretion of lactate dehydrogenase (LDH) is a non-lytic assay of cytotoxicity. […] The cells were cultured in these 2D, 3D static, or 3D perfusion configurations over 7 days in media alone or in media with increasing concentrations of cisplatin (a DNA alkylating agent used in chemotherapy) and analyzed via PrestoBlue or LDH release (examples of non-lytic means of assessing cell viability or cytotoxicity). […]

[2] = test system: Human mammary epithelial cells (hMEC); experiment: LDH release cytotoxicity assay in 2D, 3D static and 3D perfusion culture; format: cell-based; conditions: 2% triton 2 hours prior to analysis, positive control
Description: as §1, §2, §3

Compound: N.N.[Cl][Pt][Cl] [cisplatin]
- cell viability (PrestoBlue analysis) [1]: decrease in cell viability that is only statistically significant in 3D static and 3D perfusion

Compound: triton
- maximal cell lysis (LDH release) ([2]; 2D and 3D static (12-well plates)): reduced maximal cell lysis
- increase of LDH release ([2]; 3D perfusion (3DKUBE)): approximately 2.5 fold
